Source: US12097260B2, “Temperature-responsive degradable hydrogels” (priority 2017, dated 2024)
Like-named read-outs stand apart in the source and are kept apart here.

Tests used:
[1] = Effect of comonomers on LCST (slope of LCST vs. mol %); assay type: physicochemical; details: comonomer in NIPAAm-based temperature-responsive polymers
Source text: The effect on LCST of a comonomer can be determined by preparing polymers with varying content and evaluating the slope of a line of best fit for the plot of LCST vs. mol % X, where X is the comonomer.

E. faecalis (29212) = experiment: Minimum biofilm eradication concentration (MBEC) on rabbit muscle; assay type: cell-based
Method: (§1) MBEC of biofilms grown on rabbit muscle specimens in vitro was determined. The goal of the study was to compare the relative spectrum of antimicrobial activity of TOB and VANC either alone or in combination. […] This method also allows for controlled culture conditions and quantitative data without confounding phenomena that would be present in an animal model of infection such as variability throughout a single infection, host immune function, and release/transport of antimicrobials.
(§2) Aseptically obtained rabbit muscle samples (˜40 mg) were incubated in bacterial suspension for 3 days to allow biofilm growth. Tissue specimens were then rinsed and placed in separate wells of a 96-well plate. Medium containing various concentrations of antimicrobials (4000, 2000, 1000, 750, 500, 250, 125, 64, 32, 16, and 0 μg/mL) were then added to the wells containing the contaminated tissue samples. Plates were then incubated for either 6, 24, or 72 hours at 37° C. Following this “exposure time,” the antimicrobial-containing medium was removed and specimens were rinsed with antimicrobial-free growth medium at least 4 times to remove any residual antimicrobials. Then the specimens were subcultured in separate test tubes containing antimicrobial-free medium and incubated at 37° C.
(§3) In each series of specimens for a given strain, antimicrobial treatment, and exposure time, the lowest antimicrobial concentration showing no growth after 21 day subculture was measured to be the MBEC. If all subcultures were positive, the MBEC was determined to be >4000 μg/mL. Selected positive subcultures were confirmed by culture identification at a third-party diagnostic laboratory.

S. epidermidis (29886) = experiment: as above; assay type: cell-based
Method: as §1, §2, §3

S. aureus (BAA 1680) = experiment: as above; assay type: cell-based
Method: as §1, §2, §3

E. coli (25922) = experiment: as above; assay type: cell-based
Method: as §1, §2, §3

S. aureus (BAA 1556) = experiment: as above; assay type: cell-based
Method: as §1, §2, §3

S. epidermidis (35984) = experiment: as above; assay type: cell-based
Method: as §1, §2, §3

P. aeruginosa (27853) = experiment: as above; assay type: cell-based
Method: as §1, §2, §3

S. epidermidis (700583) = experiment: as above; assay type: cell-based
Method: as §1, §2, §3

S. aureus (49230) = experiment: as above; assay type: cell-based
Method: as §1, §2, §3

[2] = system: Ten laboratory standard bacterial strains; experiment: MBEC summary over the bacterial strains tested; assay type: cell-based; details: for Strains with MBEC>1,000 μg/mL: 24 and 72 hr exposure
Method: Ten laboratory standard bacterial strains intended to represent the spectrum of pathogens found in surgical site infections were evaluated: 3 S. aureus (2 methicillin-resistant, 1 methicillin-sensitive), 4 S. epidermidis (1 methicillin-resistant, 3 methicillin-sensitive), K Faecalis, P. Aeruginosa, and E. Coli (ATCC #BAA-1556, BAA-1680, 49230, 35984, 29886, 700583, 14990, 29212, 27853, and 25922). Both MRSA strains tested (BAA-1556, BAA-1680) are susceptible or intermediately susceptible to both TOB and VANC. S. epidermidis (35984), P. aeruginosa (27853), and E. faecalis (29212) are tobramycin-resistant. None of the gram-positive organisms tested are resistant to vancomycin. Vancomycin is not effective against gram-negative bacteria (E. coli, P. aeruginosa).
as §3

Solubility in water = assay type: physicochemical
S. aureus ATCC 49230 = experiment: Rabbit infection treatment model; assay type: in vivo; details: comparator treatments
Method: The present studies utilized the same rabbit infection treatment model initially adapted from Nelson and colleagues delivering tobramycin mixed into the hydrogel by the methods described herein. Twenty rabbits were infected with S. aureus ATCC 49230 and six rabbits were infected with MRSA ATCC BAA-1556. The polymer used in the hydrogels was PNJ18-DBLA with the composition reported in Table 34, and the hydrogel contained 3.14 wt % tobramycin as an active agent which was dissolved separately at the time of use and mixed with polymer solution by end-to-end syringe mixing.

[3] = Stability of hydrophobic comonomers in 95° C. stress conditions, pH 4, titration; assay type: physicochemical; details: up to 14 days at 95° C.
Method: Stability of additional monomers was also evaluated in 95° C. stress conditions as hydrophobic monomers with the function of decreasing the LCST. […] The polymers were dissolved at 50 mg/mL in 0.2 M sodium acetate-acetic acid buffer (pH 4). Separate samples of 5 mL each were incubated at 95° C. for 0, 2, 4, 7, or 14 days to evaluate stability of the hydrophobic monomers, as NIPAAm and JAAm are known to be relatively stable in these conditions. After the designated time, samples were cooled and stirred to re-dissolve the polymer, and the solution was dialyzed to remove salts and any degradants. Then 100 mg of the recovered material for each sample was dissolved in 10 mL deionized water and evaluated for acid content by titration using phenolphthalein as the indicator and 1 mM NaOH as the titrant. The titration data were corrected against a control sample which contained only deionized water, as about 0.9 mL of titrant in 10 mL was required for the indicator to change color.

[4] = Degradation vs. incubation temperature in 0.2 M phosphate buffer (accelerated stability method); assay type: physicochemical
Method: A high concentration of phosphate ions is known to decrease the LCST, an effect known as “salting-out.” Thus, the LCST values measured in this study are lower than for the same polymer in PBS. The polymer was dissolved at 3 mg/mL in 0.2 M phosphate buffer (pH 7.4). […] The buffer was not replaced. This was done to maintain a controlled experiment between temperatures because the samples at low temperatures contained polymer solution, preventing exchange of the buffer. Tubes contained transparent solution at 4° C. and slightly turbid solution at 22° C. Samples incubated at 40-80° C. formed opaque, milky solutions immediately upon heating. After overnight storage, samples incubated at 40-80° C. contained a separated solid precipitate phase at the bottom of the tube, and transparent overlying buffer. […] The LCST of each sample was determined using a cloud point method. […] At each temperature, the absorbance of the solution was measured using a spectrophotometer (450 nm). The temperature at which the absorbance was half of the maximum value was recorded as the LCST. […] For temperatures at which 30° C. was not measured, linear interpolation between the nearest two data points was used to calculate the time at which LCST reached 30° C. […] A separate study evaluated the polymer PNJ1.3-DB20 using the same methods with incubation at 4, 37, 60, and 80° C. in 0.2 M phosphate buffer (pH 7.4). […]

[5] = cited from earlier work
[6] = dog, in vivo; cited from earlier work

Molecule: C=CC(=O)NC(C)(C)C [Tert-butyl acrylamide, tert-butyl acrylamide]
- Effect on LCST [1]: −0.41 ° C./mol %

Molecule: NC[C@H]1O[C@H](O[C@H]2[C@H](O)[C@@H](O[C@H]3O[C@H](CO)[C@@H](O)[C@H](N)[C@H]3O)[C@H](N)C[C@@H]2N)[C@H](N)C[C@@H]1O [TOB, tobramycin]
- MBEC (E. faecalis (29212); 6 hr exposure): >4000 µg/mL
- MBEC (E. faecalis (29212); 24 hr exposure): >4000 µg/mL
- MBEC (E. faecalis (29212); 72 hr exposure): >4000 µg/mL
- MBEC (S. epidermidis (29886); 6 hr exposure): 125 µg/mL
- MBEC (S. epidermidis (29886); 24 hr exposure): 125 µg/mL
- MBEC (S. epidermidis (29886); 72 hr exposure): 31 µg/mL
- MBEC (S. aureus (BAA 1680); 6 hr exposure): >4000 µg/mL
- MBEC (S. aureus (BAA 1680); 24 hr exposure): >4000 µg/mL
- MBEC (S. aureus (BAA 1680); 72 hr exposure): 4000 µg/mL
- MBEC (E. coli (25922); 6 hr exposure): 250 µg/mL
- MBEC (E. coli (25922); 24 hr exposure): 62 µg/mL
- MBEC (E. coli (25922); 72 hr exposure): 62 µg/mL
- MBEC (S. aureus (BAA 1556); 6 hr exposure): 2000 µg/mL
- MBEC (S. aureus (BAA 1556); 24 hr exposure): 375 µg/mL
- MBEC (S. aureus (BAA 1556); 72 hr exposure): 250 µg/mL
- MBEC (S. epidermidis (35984); 6 hr exposure): >4000 µg/mL
- MBEC (S. epidermidis (35984); 24 hr exposure): >4000 µg/mL
- MBEC (S. epidermidis (35984); 72 hr exposure): >4000 µg/mL
- MBEC (P. aeruginosa (27853); 6 hr exposure): 2000 µg/mL
- MBEC (P. aeruginosa (27853); 24 hr exposure): 375 µg/mL
- MBEC (P. aeruginosa (27853); 72 hr exposure): 62 µg/mL
- MBEC (S. epidermidis (700583); 6 hr exposure): 125 µg/mL
- MBEC (S. epidermidis (700583); 24 hr exposure): 250 µg/mL
- MBEC (S. epidermidis (700583); 72 hr exposure): 375 µg/mL
- MBEC (S. aureus (49230); 6 hr exposure): 500 µg/mL
- MBEC (S. aureus (49230); 24 hr exposure): 375 µg/mL
- MBEC (S. aureus (49230); 72 hr exposure): 250 µg/mL
- Strains with MBEC>1,000 μg/mL [2]: 3 strains
- # Strains w/ MBEC ≥1000 μg/mL ([2]; 6 hr exposure): 5/10
- # Strains w/ MBEC ≥1000 μg/mL ([2]; 24 hr exposure): 3/10
- Max. MBEC ([2]; 24 hr exposure): >4000 µg/mL
- Median MBEC ([2]; 24 hr exposure): 250 µg/mL
- # Strains w/ MBEC ≥1000 μg/mL ([2]; 72 hr exposure): 3/10
- Solubility in aqueous solutions (Solubility in water; over a range of pH values): > 30 wt %
- Rabbits that remained infected (S. aureus ATCC 49230): 4/7

Molecule: C=CC(=O)O [Acrylic acid]
- Effect on LCST [1]: +2.6 ° C./mol %

Molecule: CN[C@H](CC(C)C)C(=O)N[C@H]1C(=O)N[C@@H](CC(N)=O)C(=O)N[C@H]2C(=O)N[C@H]3C(=O)N[C@H](C(=O)N[C@H](C(=O)O)c4cc(O)cc(O)c4-c4cc3ccc4O)[C@H](O)c3ccc(c(Cl)c3)Oc3cc2cc(c3O[C@@H]2O[C@H](CO)[C@@H](O)[C@H](O)[C@H]2O[C@H]2C[C@](C)(N)[C@H](O)[C@H](C)O2)Oc2ccc(cc2Cl)[C@H]1O [VANC, vancomycin]
- MBEC (E. faecalis (29212); 6 hr exposure): 1000 µg/mL
- MBEC (E. faecalis (29212); 24 hr exposure): 375 µg/mL
- MBEC (E. faecalis (29212); 72 hr exposure): 250 µg/mL
- MBEC (S. epidermidis (29886); 6 hr exposure): 375 µg/mL
- MBEC (S. epidermidis (29886); 24 hr exposure): 375 µg/mL
- MBEC (S. epidermidis (29886); 72 hr exposure): 375 µg/mL
- MBEC (S. aureus (BAA 1680); 6 hr exposure): 4000 µg/mL
- MBEC (S. aureus (BAA 1680); 24 hr exposure): 2000 µg/mL
- MBEC (S. aureus (BAA 1680); 72 hr exposure): 2000 µg/mL
- MBEC (E. coli (25922); 6 hr exposure): >4000 µg/mL
- MBEC (E. coli (25922); 24 hr exposure): >4000 µg/mL
- MBEC (E. coli (25922); 72 hr exposure): >4000 µg/mL
- MBEC (S. aureus (BAA 1556); 6 hr exposure): 4000 µg/mL
- MBEC (S. aureus (BAA 1556); 24 hr exposure): 2000 µg/mL
- MBEC (S. aureus (BAA 1556); 72 hr exposure): 1000 µg/mL
- MBEC (S. epidermidis (35984); 6 hr exposure): 4000 µg/mL
- MBEC (S. epidermidis (35984); 24 hr exposure): 750 µg/mL
- MBEC (S. epidermidis (35984); 72 hr exposure): 375 µg/mL
- MBEC (P. aeruginosa (27853); 6 hr exposure): >4000 µg/mL
- MBEC (P. aeruginosa (27853); 24 hr exposure): >4000 µg/mL
- MBEC (P. aeruginosa (27853); 72 hr exposure): >4000 µg/mL
- MBEC (S. epidermidis (700583); 6 hr exposure): 1000 µg/mL
- MBEC (S. epidermidis (700583); 24 hr exposure): 1000 µg/mL
- MBEC (S. epidermidis (700583); 72 hr exposure): 1000 µg/mL
- MBEC (S. aureus (49230); 6 hr exposure): >4000 µg/mL
- MBEC (S. aureus (49230); 24 hr exposure): >4000 µg/mL
- MBEC (S. aureus (49230); 72 hr exposure): 2000 µg/mL
- Strains with MBEC>1,000 μg/mL [2]: 6 strains
- # Strains w/ MBEC ≥1000 μg/mL ([2]; 6 hr exposure): 8/10
- # Strains w/ MBEC ≥1000 μg/mL ([2]; 24 hr exposure): 6/10
- Max. MBEC ([2]; 24 hr exposure): >4000 µg/mL
- Median MBEC ([2]; 24 hr exposure): 750 µg/mL
- # Strains w/ MBEC ≥1000 μg/mL ([2]; 72 hr exposure): 6/10
- Maximum solubility (Solubility in water; about pH 3): ~19 wt %
- Solubility (Solubility in water; pH 4-7.4): ≤ 2 wt %

Molecule: C=CC(=O)OCCCC [Butyl acrylate, butyl acrylate]
- Effect on LCST [1]: −0.44 ° C./mol %

Molecule: C=CC(=O)OC1C(=O)OCC1(C)C (stereo not drawn) [DBLA, dimethyl butyrolactone acrylate]
- Effect on LCST [1]: −1.8 ° C./mol %

Molecule: C=C(C)C(=O)OCCCC [BMA, butyl methacrylate]
- Effect on LCST [1]: −0.62 ° C./mol %

Molecule: C=CC(=O)OC(C)(C)C [Tert-butyl acrylate, tert-butyl acrylate]
- Initial structure retained [3]: poorest stability
- Effect on LCST [1]: −0.69 ° C./mol %

Molecule: poly(NIPAAm-co-DBLA-co-JAAm) [PNJ18-DBLA]
- Degradation at 22° C., times faster than at 4° C. [4]: 3.63 times
- Degradation at 80° C., times faster than at 40° C. [4]: 11.67 times

Molecule: C=CC(=O)NC1C(=O)OCC1(C)C (stereo not drawn) [DBLAAm, dimethyl butyrolactone acrylamide]
- Effect on LCST [1]: −0.51 ° C./mol %

Molecule: CCCCN1CCCCC1C(=O)Nc1c(C)cccc1C (stereo not drawn) [bupivacaine]
- Water solubility [5]: approximately 200 μg/mL
- Water solubility ([5]; higher pH above 7.64): less than 0.1 wt %
- Water solubility ([5]; pH≈6): 2-5 wt %
- Toxic systemic levels [6]: 1,000-2,000 ng/mL
